Measurements: the supplement of paper PMC11061612

Columns and labels:
[1] = compound: C=CCn1c(=O)c2cnc(Nc3ccc(N4CCN(C)CC4)cc3)nc2n1-c1cccc(C(C)(C)O)n1 [AZD1775]
How it was run: (§1)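 Cancer cell lines were seeded into 1536-well plates in 7.5 μl medium (DMEM/F12 or RPMI, 10% FBS), held 24 hours at 37°C and 5% CO2, and dosed for 72 hours with final DMSO typically 0.2%. Luminescence from CellTiter-Glo 2.0, scaled between blank-well and DMSO-well means, served as viability. The single-agent IC50 was obtained from dose-response fits with a non-linear mixed effects model, each fit being a two-parameter logistic curve.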

[2] = compound: Cn1cnc2c(F)c(Nc3ccc(Br)cc3Cl)c(C(=O)NOCCO)cc21 [Selumetinib]
How it was run: as §1

[3] = compound: C[C@@H](Nc1cc(F)cc(F)c1)c1cc(C(=O)N(C)C)cc2c(=O)cc(N3CCOCC3)oc12 [AZD8186]; details: max 3 µM
How it was run: as §1

[4] = compound: C[C@@H]1COCCN1C2=NC(=NC(=C2)C3(CC3)[S@](=N)(=O)C)C4=C5C=CNC5=NC=C4 [AZD6738]; details: max 10 µM
How it was run: as §1

[5] = compound: CN(C)CCCOc1ccc(-c2ccc3ncc4c(c3c2)n(C2CCOCC2)c(=O)n4C)cn1 [AZD0156]
How it was run: as §1

[6] = compound: Cc1cc2ncnn2cc1Nc1ncc2c(n1)n(C1CCOCC1)c(=O)n2C [AZD7648]; details: max 10 µM
How it was run: as §1

[7] = compound: CCc1c2c(nc3ccc(O)cc13)-c1cc3c(c(=O)n1C2)COC(=O)[C@]3(O)CC [SN-38]; details: max 0.3 µM
How it was run: as §1

[8] = compound: CC1(C)CCC(CN2CCN(c3ccc(C(=O)NS(=O)(=O)c4ccc(NCC5CCOCC5)c([N+](=O)[O-])c4)c(Oc4cnc5[nH]ccc5c4)c3)CC2)=C(c2ccc(Cl)cc2)C1 [Venetoclax]; details: max 1 µM
How it was run: as §1

[9] = compound: CC1=CN2[C@@H](C1)C=NC3=CC(=C(C=C3C2=O)OC)OCCCCCOC4=C(C=C5C(=C4)N=C[C@@H]6CC(=CN6C5=O)C)OC [SG3199]; details: max 0.001 µM
How it was run: as §1

[10] = compound: C1CN(CCC1(C(=O)N[C@@H](CCO)C2=CC=C(C=C2)Cl)N)C3=NC=NC4=C3C=CN4 [Capivasertib]
How it was run: as §1

[11] = compound: CC1=C(C(=CC=C1)Cl)NC(=O)C2=CN=C(S2)NC3=CC(=NC(=N3)C)N4CCN(CC4)CCO [Dasatinib]; details: max 2 µM
How it was run: as §1

[12] = compound: COc1nnc2ccc(N3CCC(c4ccc(OCCN5CCN(C)C(=O)[C@H]5C)cc4)CC3)nn12 [AZD5153]; details: max 1 µM
How it was run: as §1

[13] = compound: COc1cccc2c1C(=O)c1c(O)c3c(c(O)c1C2=O)C[C@@](O)(C(=O)CO)C[C@@H]3O[C@H]1C[C@H](N)[C@H](O)[C@H](C)O1 [Doxorubicin]; details: max 1 µM
How it was run: as §1

[14] = compound: Cc1c2c(nn1C)CSCc1cc(n(C)n1)CSc1cc(c3ccccc3c1)OCCCc1c(C(=O)O)n(C)c3c-2c(Cl)ccc13 [AZD5991]; details: max 1 µM
How it was run: as §1

[15] = compound: CC(=O)Nc1cccc(-n2c(=O)n(C3CC3)c(=O)c3c(Nc4ccc(I)cc4F)n(C)c(=O)c(C)c32)c1 [Trametinib]; details: max 1 µM
How it was run: as §1

[16] = compound: COc1cc2ncnc(Nc3ccc(F)c(Cl)c3)c2cc1OCCCN1CCOCC1 [Gefitinib]; details: max 10 µM
How it was run: as §1

[17] = compound: COc1cc(Nc2ncc3c(n2)-c2ccc(Cl)cc2C(c2c(F)cccc2OC)=NC3)ccc1C(=O)O [Alisertib]; details: max 10 µM
How it was run: as §1

[18] = compound: CC(=O)c1c(C)c2cnc(Nc3ccc(N4CCNCC4)cn3)nc2n(C2CCCC2)c1=O [Palbociclib]; details: max 10 µM
How it was run: as §1

[19] = compound: CN(CC[C@H](CSC1=CC=CC=C1)NC2=C(C=C(C=C2)S(=O)(=O)NC(=O)C3=CC=C(C=C3)N4CCC(CC4)[C@H](C5=CC=CC=C5C6=CC=C(C=C6)Cl)O)S(=O)(=O)C(F)(F)F)CCO [AZD4320]; details: max 1 µM
How it was run: as §1

[20] = compound: CCN(CCO)CCCOc1ccc2c(Nc3cc(CC(=O)Nc4cccc(F)c4)[nH]n3)ncnc2c1 [AZD2811]; details: max 1 µM
How it was run: as §1

[21] = compound: C[C@@H](c1ccc2nccn2c1)n1nnc2ncc(-c3cnn(C)c3)nc21 [Savolitinib]; details: max 1 µM
How it was run: as §1

[22] = compound: COc1cccc(OCCCN)c1-c1cc(Nc2cnc(C#N)cn2)n[nH]1 [Prexasertib]; details: max 1 µM
How it was run: as §1

[23] = compound: O=C(c1cc(Cc2n[nH]c(=O)c3ccccc23)ccc1F)N1CCN(C(=O)C2CC2)CC1 [Olaparib]; details: max 10 µM
How it was run: as §1

[24] = compound: Cc1nc(-c2cn3c(n2)-c2ccc(-c4cnn(C(C)(C)C(N)=O)c4)cc2OCC3)n(C(C)C)n1 [Taselisib]; details: max 10 µM
How it was run: as §1

[25] = compound: CS(=O)(=O)CCNCc1ccc(-c2ccc3ncnc(Nc4ccc(OCc5cccc(F)c5)c(Cl)c4)c3c2)o1 [Lapatinib]; details: max 10 µM
How it was run: as §1

[26] = compound: CC(C)n1c(=O)n(C)c2cnc3cc(F)c(-c4ccc(OCCCN5CCCCC5)nc4)cc3c21 [AZD1390]; details: max 0.3 µM
How it was run: as §1

[27] = compound: C[C@@H](Oc1cc(-c2cnn(C3CCNCC3)c2)cnc1N)c1c(Cl)ccc(F)c1Cl [Crizotinib]; details: max 10 µM
How it was run: as §1

| Cell Line | IC50, cell viability 72 h ([1]; max 3 µM) | IC50, cell viability 72 h ([2]; max 10 µM) | IC50, cell viability 72 h [3] | IC50, cell viability 72 h [4] | IC50, cell viability 72 h ([5]; max 3 µM) | IC50, cell viability 72 h [6] | IC50, cell viability 72 h [7] | IC50, cell viability 72 h [8] | IC50, cell viability 72 h [9] | IC50, cell viability 72 h ([10]; max 10 µM) | IC50, cell viability 72 h [11] | IC50, cell viability 72 h [12] | IC50, cell viability 72 h [13] | IC50, cell viability 72 h [14] | IC50, cell viability 72 h [15] | IC50, cell viability 72 h [16] | IC50, cell viability 72 h [17] | IC50, cell viability 72 h [18] | IC50, cell viability 72 h [19] | IC50, cell viability 72 h [20] | IC50, cell viability 72 h [21] | IC50, cell viability 72 h [22] | IC50, cell viability 72 h [23] | IC50, cell viability 72 h [24] | IC50, cell viability 72 h [25] | IC50, cell viability 72 h [26] | IC50, cell viability 72 h [27] | IC50, cell viability 72 h ([1]; max 1 µM) | IC50, cell viability 72 h ([2]; max 3 µM) | IC50, cell viability 72 h ([5]; max 1 µM) | IC50, cell viability 72 h ([10]; max 3 µM) |
| --- | --- | --- | --- | --- | --- | --- | --- | --- | --- | --- | --- | --- | --- | --- | --- | --- | --- | --- | --- | --- | --- | --- | --- | --- | --- | --- | --- | --- | --- | --- | --- |
| 786-0 (Kidney Carcinoma) | 0.392 µM | > 10 µM | > 3 µM | 5.55 µM | > 3 µM | > 10 µM | 0.023 µM | > 1 µM | > 0.001 µM | 4.54 µM | 0.396 µM | 0.523 µM | 0.571 µM | > 1 µM | > 1 µM | > 10 µM | > 10 µM | > 10 µM | > 1 µM | > 1 µM | > 1 µM | 0.0288 µM | > 10 µM | > 10 µM | 6.48 µM | > 0.3 µM | > 10 µM |  |  |  |  |
| AN3-CA (Endometrial Carcinoma) | 1.29 µM | > 10 µM | > 3 µM | > 10 µM | > 3 µM | > 10 µM | > 0.3 µM | > 1 µM | > 0.001 µM | 1.65 µM | > 2 µM | > 1 µM | > 1 µM | > 1 µM | > 1 µM | > 10 µM | 1.37 µM | > 10 µM | > 1 µM | > 1 µM | > 1 µM | 0.0665 µM | > 10 µM | 0.615 µM | > 10 µM | > 0.3 µM | > 10 µM |  |  |  |  |
| AsPC-1 (Pancreatic Carcinoma) | > 3 µM | > 10 µM | > 3 µM | > 10 µM | > 3 µM | > 10 µM | > 0.3 µM | > 1 µM | > 0.001 µM | > 10 µM | > 2 µM | > 1 µM | > 1 µM | > 1 µM | 0.866 µM | > 10 µM | > 10 µM | > 10 µM | > 1 µM | > 1 µM | > 1 µM | > 1 µM | > 10 µM | > 10 µM | > 10 µM | > 0.3 µM | > 10 µM |  |  |  |  |
| BALL-1 (B-Lymphoblastic Leukemia) | 0.131 µM | > 10 µM | > 3 µM | 0.487 µM | > 3 µM | > 10 µM | 0.00157 µM | 0.0047 µM | > 0.001 µM | 7.83 µM | > 2 µM | 0.059 µM | 0.123 µM | > 1 µM | > 1 µM | > 10 µM | 0.0849 µM | 1.15 µM | 0.00584 µM | 0.865 µM | > 1 µM | 0.00512 µM | 6.29 µM | > 10 µM | > 10 µM | > 0.3 µM | 5.24 µM |  |  |  |  |
| Calu-6 (Non-Small Cell Lung Carcinoma) | 0.784 µM | 6.08 µM | > 3 µM | 4.1 µM | > 3 µM | > 10 µM | 0.0934 µM | > 1 µM | > 0.001 µM | > 10 µM | > 2 µM | > 1 µM | > 1 µM | > 1 µM | 0.0724 µM | > 10 µM | 5.69 µM | > 10 µM | > 1 µM | > 1 µM | > 1 µM | 0.0481 µM | > 10 µM | > 10 µM | > 10 µM | > 0.3 µM | > 10 µM |  |  |  |  |
| Caov-3 (Ovarian Carcinoma) |  |  | > 3 µM | 2.74 µM |  | > 10 µM | 0.00551 µM | > 1 µM | > 0.001 µM |  |  |  | 0.316 µM | > 1 µM | > 1 µM |  | 0.0305 µM |  | > 1 µM | 0.0487 µM |  | 0.0355 µM | > 10 µM | 5.61 µM |  |  |  | 0.453 µM | > 3 µM | > 1 µM | > 3 µM |
| HSC-3 (Oral Cavity Carcinoma) | 1.73 µM | > 10 µM | > 3 µM | > 10 µM | > 3 µM | > 10 µM | 0.0185 µM | > 1 µM | > 0.001 µM | 4.55 µM | 0.877 µM | 0.123 µM | > 1 µM | > 1 µM | 0.216 µM | 6.9 µM | 3.39 µM | > 10 µM | > 1 µM | > 1 µM | > 1 µM | 0.213 µM | > 10 µM | 2.26 µM | 2.31 µM | > 0.3 µM | 5.82 µM |  |  |  |  |
| HTC-C3 (Thyroid Gland Carcinoma) | 2.3 µM | 0.941 µM | > 3 µM | 3.09 µM | > 3 µM | > 10 µM | > 0.3 µM | > 1 µM | > 0.001 µM | > 10 µM | 0.128 µM | 0.13 µM | > 1 µM | > 1 µM | 0.0318 µM | > 10 µM | > 10 µM | > 10 µM | > 1 µM | > 1 µM | > 1 µM | 0.128 µM | > 10 µM | > 10 µM | > 10 µM | > 0.3 µM | > 10 µM |  |  |  |  |
